BigSolDB 2.1

SMILES: CC[C@H](C)C(=O)O[C@H]1C[C@H](O)C=C2C=C[C@H](C)[C@H](CC[C@@H](O)C[C@@H](O)CC(=O)[O-])[C@H]21.[Na+]
- solubility (mole fraction) (in ethanol, 278 K): 0.0031
- solubility (mole fraction) (in ethanol, 283 K): 0.00325
- solubility (mole fraction) (in ethanol, 288 K): 0.00346
- solubility (mole fraction) (in ethanol, 293 K): 0.00366
- solubility (mole fraction) (in ethanol, 298 K): 0.00406
- solubility (mole fraction) (in ethanol, 303 K): 0.00429
- solubility (mole fraction) (in ethanol, 318 K): 0.00569
- solubility (mole fraction) (in ethanol, 323 K): 0.00692
- solubility (mole fraction) (in ethanol, 328 K): 0.00793
- solubility (mole fraction) (in ethanol, 333 K): 0.00942
- solubility (mole fraction) (in isopropanol, 278 K): 0.000605
- solubility (mole fraction) (in isopropanol, 283 K): 0.000684
- solubility (mole fraction) (in isopropanol, 288 K): 0.000753
- solubility (mole fraction) (in isopropanol, 293 K): 0.000818
- solubility (mole fraction) (in isopropanol, 298 K): 0.000903
- solubility (mole fraction) (in isopropanol, 303 K): 0.00103
- solubility (mole fraction) (in isopropanol, 308 K): 0.0011
- solubility (mole fraction) (in isopropanol, 318 K): 0.00141
- solubility (mole fraction) (in isopropanol, 322.9 K): 0.00164
- solubility (mole fraction) (in isopropanol, 327.9 K): 0.0019
- solubility (mole fraction) (in methanol, 277.8 K): 0.0225
- solubility (mole fraction) (in methanol, 283 K): 0.0245
- solubility (mole fraction) (in methanol, 287.9 K): 0.027
- solubility (mole fraction) (in methanol, 293 K): 0.0301
- solubility (mole fraction) (in methanol, 297.8 K): 0.0326
- solubility (mole fraction) (in methanol, 302.9 K): 0.0373
- solubility (mole fraction) (in methanol, 308 K): 0.0418
- solubility (mole fraction) (in methanol, 313 K): 0.0492
- solubility (mole fraction) (in methanol, 318 K): 0.0588
- solubility (mole fraction) (in methanol, 324 K): 0.0687
- solubility (mole fraction) (in n-butanol, 278.1 K): 0.00108
- solubility (mole fraction) (in n-butanol, 283 K): 0.00118
- solubility (mole fraction) (in n-butanol, 288 K): 0.00127
- solubility (mole fraction) (in n-butanol, 293 K): 0.00144
- solubility (mole fraction) (in n-butanol, 298 K): 0.00159
- solubility (mole fraction) (in n-butanol, 303 K): 0.00178
- solubility (mole fraction) (in n-butanol, 308 K): 0.00223
- solubility (mole fraction) (in n-butanol, 313 K): 0.0029
- solubility (mole fraction) (in n-butanol, 318.2 K): 0.00345
- solubility (mole fraction) (in n-butanol, 323 K): 0.00408
- solubility (mole fraction) (in n-butanol, 328 K): 0.00493
- solubility (mole fraction) (in n-propanol, 278 K): 0.00208
- solubility (mole fraction) (in n-propanol, 283 K): 0.00216
- solubility (mole fraction) (in n-propanol, 288 K): 0.00219
- solubility (mole fraction) (in n-propanol, 293 K): 0.00227
- solubility (mole fraction) (in n-propanol, 298 K): 0.00238
- solubility (mole fraction) (in n-propanol, 308 K): 0.00343
- solubility (mole fraction) (in n-propanol, 313 K): 0.00449
- solubility (mole fraction) (in n-propanol, 318 K): 0.0062
- solubility (mole fraction) (in n-propanol, 328 K): 0.0122
- solubility (mole fraction) (in n-propanol, 333 K): 0.0158
- solubility (mole fraction) (in water, 278.4 K): 0.00911
- solubility (mole fraction) (in water, 283 K): 0.0119
- solubility (mole fraction) (in water, 288 K): 0.0162
- solubility (mole fraction) (in water, 293 K): 0.0216
- solubility (mole fraction) (in water, 298 K): 0.0285
- solubility (mole fraction) (in water, 303 K): 0.0343
- solubility (mole fraction) (in water, 313 K): 0.0477
- solubility (mole fraction) (in water, 318 K): 0.0553
- solubility (mole fraction) (in water, 323 K): 0.0642
- solubility (mole fraction) (in water, 328 K): 0.0723
- solubility (mole fraction) (in water, 333 K): 0.0841
